In EP1650209A1, “Griseusin derivatives and their use as antitumor agents” (Oncotest GmbH, priority 2004, dated 2006):
In brackets after ≈: the same amount, converted by molar mass.

Experiments:
Test in all cases: Proliferation inhibition of cancer cells (propidium iodide fluorescence)
Assay type in all cases: cell-based, human
BXF 1218L = conditions: Bladder, BXF 1218L cell line
Experimental: (§1) Using various human cancer cells in vitro, the concentrations of the test compounds (A, B, C, D, E, F), which inhibit the proliferation of cancer cells by 50% (IC50) and 70% (IC70) were determined. Specifically, each cell line of bladder cancer (BXF 1218L and T-24), glioblastoma (CNXF 498NL), colic cancer (HCT-116 and HT-29), gastric cancer (GXF 251 L), head and neck cancer (HNXF 536L), non small cell lung cancer (LXF 1121L, LXF 289L, LXF 526L, LXF 529L, LXF 629L and H-460), mammary cancer (MAXF 401NL, MCF-7, MDA-231 and MDA-468), melanoma (MEXF 276L, MEXF 394NL, MEXF 462NL, MEXF 514L and MEXF 520L), ovary cancer (OVXF 1619L, OVXF 899L and OVCAR-3), pancreatic cancer (PAXF 1657L and PANC-1), prostate cancer (22Rv1, DU-145, LNCaP and PC3M), pleuramesothelioma (PXF 1752L), renal cancer (RXF 1781 L, RXF 393NL, RXF 486L and RXF 944L), and uterine cancer (UXF 1138L) is added to a 96-well microtiter plate at a density of 3.6-11.2x10^3 cells per well in RPMI-1640 medium containing 10% fetal calf serum and 0.1% gentamicin and incubated for 24 hours. After 24 hours RPMI-1640 medium containing 10% fetal calf serum and 0.1% gentamicin, together with a test compound, is added thereto. Then, this plate is incubated at 37°C for 4 days in a humidified atmosphere of air containing 5% CO2. Thereafter, the cell culture medium with or without drug was replaced by 200 µl of an aqueous PI solution (7 µg/ml propidium iodide). Applying a freeze thaw cycle to permeabilize intact cell walls, staining of DNA was achieved, and the fluorescence of each well was measured using the Cy-tofluor 4000 microplate reader (excitation 530 nm, emission 620 nm), giving a direct relationship to the total cell number. Proliferation inhibition is expressed as test versus untreated control (T/C-value [%]). IC50 and IC70 values were determined by plotting compound concentration versus cell viability.

CNXF 498NL = conditions: Glioblastoma, CNXF 498NL cell line
Experimental: as §1

H-460 = conditions: Lung, non small cell, H-460 cell line
Experimental: as §1

HNXF 536L = conditions: Head and Neck, HNXF 536L cell line
Experimental: as §1

HT-29 = conditions: Colon, HT-29 cell line
Experimental: as §1

LNCaP = conditions: Prostate, LNCaP cell line
Experimental: as §1

LXFA 289L = conditions: Lung, non small cell, LXFA 289L cell line
Experimental: as §1

LXFA 526L = conditions: Lung, non small cell, LXFA 526L cell line
Experimental: as §1

LXFA 629L = conditions: Lung, non small cell, LXFA 629L cell line
Experimental: as §1

LXFL 529L = LXFL 529L cell line
Experimental: as §1

MDA-468 = conditions: Breast, MDA-468 cell line
Experimental: as §1

MEXF 276L = conditions: Melanoma, MEXF 276L cell line
Experimental: as §1

MEXF 462NL = MEXF 462NL cell line
Experimental: as §1

MEXF 514L = conditions: Melanoma, MEXF 514L cell line
Experimental: as §1

MEXF 520L = conditions: Melanoma, MEXF 520L cell line
Experimental: as §1

OVCAR-3 = conditions: Ovary, OVCAR-3 cell line
Experimental: as §1

OVXF 899L = conditions: Ovary, OVXF 899L cell line
Experimental: as §1

PANC-1 = conditions: Pancreas, PANC-1 cell line
Experimental: as §1

PC3M = conditions: Prostate, PC3M cell line
Experimental: as §1

RXF 393NL = conditions: Kidney, RXF 393NL cell line
Experimental: as §1

RXF 486L = RXF 486L cell line
Experimental: as §1

RXF 944L = conditions: Kidney, RXF 944L cell line
Experimental: as §1

T-24 = conditions: Bladder, T-24 cell line
Experimental: as §1

UXF 1138L = UXF 1138L cell line
Experimental: as §1

- IC50 (BXF 1218L): 0.056 µg/mL (≈ 0.14 µM)
- IC50 (CNXF 498NL): 0.107 µg/mL (≈ 0.267 µM)
- IC50 (H-460): 0.490 µg/mL (≈ 1.22 µM)
- IC50 (HNXF 536L): 0.237 µg/mL (≈ 0.592 µM)
- IC50 (HT-29): 0.114 µg/mL (≈ 0.285 µM)
- IC50 (LNCaP): 0.107 µg/mL (≈ 0.267 µM)
- IC50 (LXFA 289L): 8.770 µg/mL (≈ 21.9 µM)
- IC50 (LXFA 526L): 0.129 µg/mL (≈ 0.322 µM)
- IC50 (LXFA 629L): 0.234 µg/mL (≈ 0.585 µM)
- IC50 value (LXFL 529L; 4 days): 1.068 µg/mL (≈ 2.67 µM)
- IC50 (LXFL 529L; Lung, non small cell): 1.068 µg/mL (≈ 2.67 µM)
- IC50 (MDA-468): 0.060 µg/mL (≈ 0.15 µM)
- IC50 (MEXF 276L): 0.112 µg/mL (≈ 0.28 µM)
- IC50 value (MEXF 462NL; 4 days): 0.086 µg/mL (≈ 0.215 µM)
- IC50 (MEXF 462NL; Melanoma): 0.086 µg/mL (≈ 0.215 µM)
- IC50 (MEXF 514L): 0.087 µg/mL (≈ 0.217 µM)
- IC50 (MEXF 520L): 0.102 µg/mL (≈ 0.255 µM)
- IC50 (OVCAR-3): 0.521 µg/mL (≈ 1.3 µM)
- IC50 (OVXF 899L): 1.265 µg/mL (≈ 3.16 µM)
- IC50 (PANC-1): 0.117 µg/mL (≈ 0.292 µM)
- IC50 (PC3M): 0.402 µg/mL (≈ 1 µM)
- IC50 (RXF 393NL): 0.104 µg/mL (≈ 0.26 µM)
- IC50 (RXF 486L; Kidney): 0.078 µg/mL (≈ 0.195 µM)
- IC50 value (RXF 486L; 4 days): 0.078 µg/mL (≈ 0.195 µM)
- IC50 (RXF 944L): 0.038 µg/mL (≈ 0.0949 µM)
- IC50 (T-24): 0.507 µg/mL (≈ 1.27 µM)
- IC50 value (UXF 1138L; 4 days): 0.216 µg/mL (≈ 0.54 µM)
- IC50 (UXF 1138L; Uterus): 0.216 µg/mL (≈ 0.54 µM)
Structure (SMILES): C[C@@H]1CC(=O)[C@@H](O)[C@]2(O1)O[C@@H]1CC(=O)O[C@@H]1C1=C2C(=O)c2c(O)cccc2C1=O [Compound B, 4'-dehydro-deacetylgriseusin A]
- IC70 (BXF 1218L): 0.133 µg/mL (≈ 0.332 µM)
- IC70 (CNXF 498NL): 0.184 µg/mL (≈ 0.46 µM)
- IC70 (H-460): 1.042 µg/mL (≈ 2.6 µM)
- IC70 (HNXF 536L): 0.716 µg/mL (≈ 1.79 µM)
- IC70 (HT-29): 0.177 µg/mL (≈ 0.442 µM)
- IC70 (LNCaP): 0.175 µg/mL (≈ 0.437 µM)
- IC70 (LXFA 289L): 14.801 µg/mL (≈ 37 µM)
- IC70 (LXFA 526L): 0.206 µg/mL (≈ 0.515 µM)
- IC70 (LXFA 629L): 0.671 µg/mL (≈ 1.68 µM)
- IC70 (LXFL 529L; Lung, non small cell): 1.814 µg/mL (≈ 4.53 µM)
- IC70 (MDA-468): 0.127 µg/mL (≈ 0.317 µM)
- IC70 (MEXF 276L): 0.212 µg/mL (≈ 0.53 µM)
- IC70 (MEXF 462NL; Melanoma): 0.158 µg/mL (≈ 0.395 µM)
- IC70 (MEXF 514L): 0.149 µg/mL (≈ 0.372 µM)
- IC70 (MEXF 520L): 0.175 µg/mL (≈ 0.437 µM)
- IC70 (OVCAR-3): 1.309 µg/mL (≈ 3.27 µM)
- IC70 (OVXF 899L): 2.249 µg/mL (≈ 5.62 µM)
- IC70 (PANC-1): 0.200 µg/mL (≈ 0.5 µM)
- IC70 (PC3M): 0.929 µg/mL (≈ 2.32 µM)
- IC70 (RXF 393NL): 0.164 µg/mL (≈ 0.41 µM)
- IC70 (RXF 486L; Kidney): 0.142 µg/mL (≈ 0.355 µM)
- IC70 (RXF 944L): 0.107 µg/mL (≈ 0.267 µM)
- IC70 (T-24): 1.137 µg/mL (≈ 2.84 µM)
- IC70 (UXF 1138L; Uterus): 0.524 µg/mL (≈ 1.31 µM)
